Experimental data: patent US8623832B2, “Peptide compositions that bind TLR-4” (The Board of Regents of the University of Oklahoma, priority 2011, dated 2014)
Where no end group is shown, it is not given here.

Legend:
[1] = test system: NF-κB pathway molecules (IKBα, phosphorylated IKBα, p65, phosphorylated p65, RelB, COX-2); assay: Expression of NF-κB pathway molecules in SW480 cell lysates by immunoblotting; assay type: cell-based, human
Method: Expression of NF-κB pathway molecules by immunoblotting: The expression of NF-κB pathway molecules (inhibitor kappa-Bα: IKBα, phosphorylated IKBα, p65, phosphorylated p65, RelB and COX-2) in SW480 cell-lysates treated with LPS±SPA4 peptide was studied by immunoblotting. For the immunoblotting, 10 μg of total cell-lysate proteins were fractionated on Novex 4-20% Tris-glycine gradient SDS-PAGE gel (Invitrogen, Carlsbad, Calif.) by electrophoresis. Separated proteins were electro-transferred onto a nitrocellulose membrane using iBlot gel transfer device (Invitrogen, Carlsbad, Calif.). The non-specific sites were blocked by incubating the membrane with 7% skimmed milk in Tris-buffered saline with 0.4% TWEEN®-20 (TBST) for 1 hour at room temperature. The blocked membranes were incubated overnight at 4° C. with 1:1000 diluted anti-human antibodies against NF-κB canonical pathway molecules: phosphorylated inhibitor kappa-Bα (IKBα), total-IKBα, p65, RelB (Cell Signaling Technology, Inc., Danvers, Mass.), phosphorylated p65 (Santacruz Biotech, Inc., Santa Cruz, Calif.) and cyclooxygenase-2 (COX-2; Santacruz Biotech, Inc., Santa Cruz, Calif.). The membranes were washed with TBST and incubated at room temperature for 45 minutes with 1:3500 diluted horse-radish peroxidase (HRP)-conjugated-secondary antibody (Sigma-Aldrich, St. Louis, Mo.). The immunoreactive bands were detected by Super Signal West Femto detection reagent (Thermo Fisher Scientific, Barrington, Ill.). In order to ensure equal protein loading in the wells, the membranes were stripped of probing antibodies at 60° C. for 45 minutes using a stripping solution containing 10% SDS, 0.5 M Tris and […] (35 μl/ml), and re-probed with anti-actin antibody (Sigma-Aldrich, MO; 1:1000 in TBST). The immunoblots were imaged using the Ultraquant image acquisition program (UltraLum Inc., Claremont, Calif.). The densitometric readings were obtained for immunoreactive bands with Image J 1.42 q program (NIH, USA). Finally, arbitrary densitometric values for proteins of interest were normalized with those of β-actin.

[2] = test system: IL-1β and IL-6; assay: Expression of IL-1β and IL-6 in SW480 cell lysates by immunoblotting; assay type: cell-based, human
Method: Expression of IL-1β and IL-6: Two treatment models (post- and pre-LPS treatment) were utilized for assessing the effects of SPA4 peptide on LPS-induced cytokines: IL-1β and IL-6. Post-LPS treatment models (short-term and long-term) are described above. In pre-LPS treatment model, the SW480 cells were pretreated with SPA4 peptide (10 μM) for 2 hours, followed by LPS-challenge (1.0 μg/ml) for another 4 hours. The cell-lysates were prepared either in commercially available cell-culture lysis reagent (Promega, WI) or directly into SDS-PAGE sample buffer containing 50 mM dithiothreitol (Cell Signalling Technology, MA). Ten μg of cell-lysate proteins were separated on 4-20% Novex Tris-glycine gradient SDS-PAGE gel (Invitrogen, CA) or 10% separating-5% stacking acrylamide gel. The expression levels of cytokines were measured by immunoblotting as described above using 1:1000 diluted antibodies against IL-1β and IL-6. Both antibodies were purchased from Santacruz Biotech, CA.

[3] = Solubility of purified baboon lung SP-A; assay type: physicochemical
[4] = biological target: T1, recombinant MD2 protein (Homo sapiens, UniProt Q9Y6Y9); assay: Microwell-based binding to immobilized recombinant MD2 protein; details: 0.25 μg MD2 per well
T1 construct: human MD-2 (mature region, Glu 17-Asn 160 amino acids); 10x histidine tag (C); signal peptide from human CD33 (N); purchased R&D Systems, MN; host or cells: mouse myeloma cell line NS0
T1 sequence (Q9Y6Y9 17-160): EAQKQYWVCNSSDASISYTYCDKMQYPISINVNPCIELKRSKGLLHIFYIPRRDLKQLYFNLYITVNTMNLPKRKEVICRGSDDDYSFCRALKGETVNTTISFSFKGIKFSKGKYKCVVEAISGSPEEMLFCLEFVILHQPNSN
From the text: Interaction between purified baboon lung SP-A, SP-A-peptides and TLR4-MD2 proteins using a microwell-based method: The binding between the purified baboon lung SP-A, SP-A-peptides and recombinant TLR4-MD2 and MD2 proteins was studied in vitro using a microwell-based method (Awasthi et al., 2004). The soluble, recombinant TLR4-MD2 protein (R&D Systems, MN) consisted of a mixture of recombinant human-TLR4 and MD2 proteins. The recombinant extracellular domain of human TLR4 protein (Glu 24-Lys 631 amino acids), was joined with a DNA sequence encoding the signal peptide from human CD33 and a 10× histidine tag at the C-terminus (Accession # O00206). For MD2 protein, a DNA sequence encoding the signal peptide from human CD33 was joined with the mature region of human MD-2 (mature region, Glu 17-Asn 160 amino acids) and a 10× histidine tag at the C-terminus (Accession # Q9Y6Y9). […]
For the binding assay, microwell ultra-high-protein binding Immunolon 4HBX strips (Thermo Scientific, MA) were coated with soluble recombinant-TLR4-MD2 protein or MD2 protein (R&D Systems, 250 ng per well, diluted in 0.1 M NaHCO3, pH 9.6) overnight at room temperature. […] The immune-complex was detected using 3,3′,5,5′-tetramethylbenzidine (TMB) substrate system (Sigma-Aldrich, MO). The reaction was stopped with 2 N H2SO4 and read at 405 and/or 450 nm spectrophotometrically (Molecular Devices, CA).

Substance	expression of RelB ([1]; LPS-challenged)	expression of phosphorylated IKBα ([1]; LPS-challenged)	expression of COX-2, short-term treatment ([1]; LPS-challenged, 5 hours model)	expression of phosphorylated p65, short-term treatment ([1]; LPS-challenged, 5 hours model)	expression of total IKBα, short-term treatment ([1]; LPS-challenged, 5 hours model)	expression of COX-2, long-term treatment ([1]; LPS-challenged, 9 hours model)	expression of phosphorylated p65, long-term treatment ([1]; LPS-challenged, 9 hours model)	expression of total IKBα, long-term treatment ([1]; LPS-challenged, 9 hours model)	expression of NF-κB signaling molecules, SPA4 peptide alone ([1]; no LPS)	expression of IL-6 precursors or active form, short-term treatment model [2]	expression of low molecular weight precursors and active IL-1β, post-LPS treatment models ([2]; 5 hours and 9 hours, dose-dependent)	IL-6 expression, prolonged treatment ([2]; 6 hours or 9 hours in pre- and post-LPS-treatment models)	expression of IL-1β precursor and active forms, pre-LPS treatment model ([2]; SPA4 10 μM 2 hours then LPS 1.0 μg/ml 4 hours)	expression of IL-1β precursor form 1 ([2]; compared with LPS-treated cells)	solubility [3] [%]	binding to surface-bound MD2 protein [4]
GDFRYSDGTPVNYTNWYRGE [SPA4, GDFRYSDGT PVNYTNWYRGE]	No effect	No effect	decrease	decrease	increase	remained low	remained low	decreased	did not affect the expression of any of the NF-κB signaling molecules studied, except for COX-2	not significantly affected	significantly decreased	significantly inhibited	significant decrease	increased or unchanged		
SP-A: native surfactant protein-A purified from bronchioalveolar lavage fluid of a normal healthy adult baboon (MWLCPLALTLTLMAASGAACEVKDVCVGSPGIPGTPGSHGLPGRDGRDGVKGDPGPP; listed as Papio cynocephalus)															51	found to bind
